Calls of active or inactive are those of the source. No cut-off for these calls is given here. Non-standard residues stand in square brackets, D forms with d. Residues, ends and D or L forms follow the SMILES beside them. Phe(4-F) = N[C@@H](Cc1ccc(F)cc1)C(=O)O

The target of one experiment is T1, 3-hydroxy-3-methylglutaryl-coenzyme A reductase (Mesocricetus auratus) (UniProt P09610).
T1 sequence (whole entry): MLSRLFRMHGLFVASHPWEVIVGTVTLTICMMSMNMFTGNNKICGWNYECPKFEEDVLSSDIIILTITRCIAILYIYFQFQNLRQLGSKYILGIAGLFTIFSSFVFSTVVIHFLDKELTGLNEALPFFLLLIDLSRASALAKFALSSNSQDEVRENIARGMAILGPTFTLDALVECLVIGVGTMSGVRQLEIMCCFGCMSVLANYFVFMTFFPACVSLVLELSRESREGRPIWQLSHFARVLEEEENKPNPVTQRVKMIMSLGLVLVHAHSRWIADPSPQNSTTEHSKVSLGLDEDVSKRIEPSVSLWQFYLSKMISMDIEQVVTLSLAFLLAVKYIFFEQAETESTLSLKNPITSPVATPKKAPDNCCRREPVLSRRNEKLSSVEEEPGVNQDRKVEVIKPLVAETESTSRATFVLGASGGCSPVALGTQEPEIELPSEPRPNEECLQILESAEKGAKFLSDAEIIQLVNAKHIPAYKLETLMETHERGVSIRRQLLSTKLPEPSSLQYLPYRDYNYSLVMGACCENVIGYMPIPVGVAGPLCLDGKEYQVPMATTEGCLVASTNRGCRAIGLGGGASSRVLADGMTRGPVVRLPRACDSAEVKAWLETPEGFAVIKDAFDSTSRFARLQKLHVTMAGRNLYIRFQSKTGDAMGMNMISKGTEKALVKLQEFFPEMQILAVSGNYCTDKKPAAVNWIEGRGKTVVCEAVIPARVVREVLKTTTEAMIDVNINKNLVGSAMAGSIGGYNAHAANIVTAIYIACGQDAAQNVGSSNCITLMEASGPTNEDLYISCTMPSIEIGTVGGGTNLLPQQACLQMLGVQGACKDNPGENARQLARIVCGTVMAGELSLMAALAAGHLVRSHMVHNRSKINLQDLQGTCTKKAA
As to the kind of experiment: (§1) Inhibition of Syrian hamster HMGR.
As for `CC(C)[C@H](NC(=O)CN)C(=O)N[C@@H](C)C(=O)N[C@@H](CCC(=O)O)C(=O)O` (H-GVAE-OH), the result was inactive. On the same count and under the same terms, the same measure for H-GGPTGG-OH: “inactive”.

Another experiment addresses T2, 3-hydroxy-3-methylglutaryl-coenzyme A reductase (Mesocricetus auratus, UniProt P09610).
T2 sequence (P09610 whole entry): T1 sequence (whole entry)
Described as §1.
Broadly, the IC50 is the concentration at which inhibition is half-maximal. Read a high IC50 as a need for much substance. For `CC(C)[C@H](NC(=O)[C@@H](N)Cc1ccccc1)C(=O)N[C@@H](C)C(=O)N[C@@H](CCC(=O)O)C(=O)O` (H-FVAE-OH), the IC50 is 43.8 µM. On the same count and under the same terms, the same measure for `CC[C@H](C)[C@H](N)C(=O)N[C@@H](C)C(=O)N[C@H](C(=O)N[C@@H](CCC(=O)O)C(=O)O)C(C)C` (H-IAVE-OH): 75.2 µM; for `CC[C@H](C)[C@H](N)C(=O)N[C@@H](C)C(=O)N[C@H](C(=O)N1CCC[C@H]1C(=O)O)C(C)C` (H-IAVP-OH): 97.1 µM; for `CC[C@H](C)[C@H](N)C(=O)N[C@H](C(=O)N[C@@H](C)C(=O)N[C@@H](CCC(=O)O)C(=O)O)C(C)C` (H-IVAE-OH): 44.1 µM. The same measure, in the same setting: next, `CC(C)C[C@H](N)C(=O)N1CCC[C@H]1C(=O)N[C@@H](Cc1ccc(O)cc1)C(=O)N1CCC[C@H]1C(=O)O` (H-LPYP-OH): 485 µM. `CC(C)[C@H](NC(=O)[C@H](C)NC(=O)[C@@H](N)Cc1ccc(O)cc1)C(=O)N[C@@H](CCC(=O)O)C(=O)O` (H-YAVE-OH) came in with an IC50 of 52.6 µM. `CC(C)[C@H](NC(=O)[C@@H](N)Cc1ccc(O)cc1)C(=O)N[C@@H](C)C(=O)N[C@@H](CCC(=O)O)C(=O)O` (H-YVAE-OH) had an IC50 of 41.8 µM. For the molecule `CC(C)[C@H](NC(=O)[C@@H](N)Cc1ccc(F)cc1)C(=O)N[C@@H](C)C(=O)N[C@@H](CCC(=O)O)C(=O)O` (H-[Phe(4-F)]VAE-OH), half-maximal inhibition (IC50) was put at 3.8 µM. In turn, H-GFPDGG-OH showed an IC50 of 1.5 µM. In the case of H-GFPEGG-OH, it took 1.7 µM to reach half-maximal inhibition (IC50). For H-GFPTGG-OH, the IC50 amounted to 16.9 µM. For H-GLPDGG-OH, the IC50 stood at 22.3 µM. The IC50 values of the last two molecules are within 1.5-fold of each other. The molecule H-GLPEGG-OH came in with an IC50 of 27.2 µM. This IC50 and that of the molecule before are within 1.5-fold of each other. H-GLPTGG-OH came in with an IC50 of 19.4 µM. H-IAVPGEVA-OH gave an IC50 of 152 µM.

(Values after ChEMBL document CHEMBL1143939, “Binding effect and design of a competitive inhibitory peptide for HMG-CoA reductase through modeling of an active peptide backbone” (Bioorg Med Chem, 2008).)
